One assay concerns MDA-MB-231. Kind of assay: XTT cell viability assay, MDA-MB-231. The class given is cell-based. As to conditions: Homo sapiens, XTT assay (48 h), standard deviation of 10%, read-out: EC50 (μM) Breast MDA-MB-231. The procedure:
(§1) Fifty microliters of sodium 3′-[1-phenylaminocarbonyl)-3,4-tetrazolium]-bis(4-methoxy-6-nitro) benzene sulfonic acid hydrate (XTT) reagent was added to each well. The assay is based on the cleavage of the yellow tetrazolium salt XTT to form an orange formazan dye by metabolically active cells. The absorbance of the formazan product, reflecting cell viability, was measured at 490 nm. Each assay was performed in quadruplicate.
(§2) Compounds #1-#14 have been assayed as potential anti-proliferative agents against a panel of human breast head and neck, and kidney tumor cells and hematological malignancies, selected on the basis of their aggressiveness (e.g. incurable triple-negative breast cancer cells: MDA-MB-231; kidney ccRCC cells: RCC4, A498 and 786-O and 786R; head and neck cancer cells: CAL33, CAL33RR, CAL27, and CAL27RR; acute myeloid cell lines: OCI-AML2, OCI-AML3, MolM13, and MolM14; myelodysplastic cell line: SM1; and chronic myeloid cell line: CML). All these cell lines share as common denominator the expression of CXCR1 and CXCR2. The EC50 values have been measured by a XTT colorimetric assay, and compared to those of SB-225002, used as a reference; the results are listed in Table 1.
Background: Formazan colour is commonly taken as a measure of viable cells.

In another assay the test system is A498. Briefly: XTT cell viability assay, A498. It counts as cell-based, human. Conditions: Homo sapiens, A498; XTT assay (48 h); standard deviation of 10%; read-out: EC50 (μM) Kidney A498. The procedure: as §1, §2
The subject of another assay is 786R. Briefly: XTT cell viability assay, 786R (sunitinib-resistant). The class given is cell-based, human. As to conditions: for EC50: XTT assay (48 h), sunitinib-resistant, standard deviation of 10%, read-out: EC50 (μM) Kidney 786R. Here is the method: A, B: Naive (786-O, A), and sunitinib-resistant (786-R, B) 786-O cells, were treated with compound #1 or sunitinib (1 to 10 μM) for 48 hr. Cell viability was measured by XTT assays;
D, E: 786-O (D), 786-R (E), were treated with 2.5 μM compound #1 or 2.5 μM sunitinib for 24 h to 96 h. The cells metabolism was measured by XTT assay;
as §1, §2

The test system of another assay is CAL33RR. Briefly: XTT cell viability assay, CAL33RR. The class given is cell-based. As to conditions: Homo sapiens, light or radiation study; XTT assay (48 h); resistant to irradiation and cisplatin; standard deviation of 10%; read-out: EC50 (μM) Head and Neck CAL33RR. Here is the method: as §1, §2
The test system of another assay is CAL27. Briefly: XTT cell viability assay, CAL27. The class given is cell-based, human. As to conditions: for EC50: XTT assay (48 h), standard deviation of 10%, read-out: EC50 (μM) Head and Neck CAL27. The procedure: (§3) A, B: Naive (Cal27, A), and cisplatine-resistant (Cal27R, B) Cal27 cells, were treated with compound #1 or cisplatine (1 to 10 μM) for 48 hr. Cell viability was measured by XTT assays;
(§4) C, D: Cal27 (C), cal27R (D), were treated with 2.5 μM compound #1, 2.5 μM cisplatin for 24 h to 96 h. The metabolism of cells was measured by XTT assay.
as §1, §2

The subject of the next assay is CAL27RR. Briefly: XTT cell viability assay, CAL27RR (cisplatin-resistant). It counts as cell-based, human. The procedure:
as §3, §4, §1, §2

For the next assay, the system named is OCI-AML3. Kind of assay: XTT cell viability assay, OCI-AML3. The class given is cell-based, human. As to conditions: Homo sapiens, OCI-AML-3; XTT assay (48 h); standard deviation of 10%. Here is the method:
as §1, §2

The next assay concerns MolM13. Kind of assay: XTT cell viability assay, MolM13. It counts as cell-based, human. Conditions: Homo sapiens, MOLM-13; XTT assay (48 h); standard deviation of 10%; read-out: EC50 (μM) AML MolM13. Here is the method:
as §1, §2

Assay [1] relates to malignant (ccRCC and hematological) cells. Kind of assay: FACS analysis of cell death markers (AV, PI), malignant cells. It counts as cell-based, human. As to conditions: 5 μM, 48 h. The procedure:
FIG. 1: Observation by FACS analyses of early (Annexin AV) and late (Propidium Iodide, PI) apoptosis markers expressed by healthy and malignant cells after treatment with compounds #1 and #2 at 5 μM. CT: negative control.
Apoptosis analysis: After stimulation, cells were washed with ice-cold PBS and were stained with the annexin-V-fluos staining kit (Roche, Meylan, France) according to the manufacturer's procedure. Fluorescence was measured by using the FL2 (AV) and FL3 (propidium iodide, PI) channels of a fluorescence-activated cell sorter apparatus (Calibur cytometer).
To complete these XTT assays, malignant (ccRCC and hematological) and healthy (human fibroblasts FHN) cells have been grown with compounds #1 or #2, and after 48h the expression of cell death markers (AV and PI) has been quantified by FACS analyses (FIG. 1).

A further assay relates to HuVEC. Briefly: HuVEC viability/proliferation (XTT), basal and CXCL5/CXCL7-dependent. The class given is cell-based. As to conditions: XTT 48 h; 100 ng/ml CXCL7 or CXCL5, 0.25 or 0.5 μM. The procedure:
C: HuVEC were grown in the presence of different concentrations of compound #1 for 48h. Cell viability was measured by XTT assays;
D: HuVEC were incubated with 100 ng/ml CXCL7 or CXCL5, in presence of 0.25 or 0.5 μM compound #1 for 48 h. Cell viability was measured by XTT assays;
as §1

Another assay concerns ERK signaling pathway. Briefly: Immunoblotting of p-ERK in CXCL5-stimulated HuVEC. The class given is cell-based. Conditions: 5 μM pre-treatment 1 h, CXCL5 50 ng/ml 10 min. Here is the method:
E: HuVEC were pre-treated with 5 μM compound #1 for 1 h then stimulated with 50 ng/ml CXCL5 for 10 min. p-ERK levels were analyzed by immunoblotting. ERK and HSP60 served as loading controls *P<0.05; **P<0.01; ***P<0.001.
Cells were lysed in buffer containing 3% SDS, 10% glycerol and 0.825 mM Na2HPO4. 30 to 50 μg of proteins were separated on 10% SDS-PAGE, transferred onto a PVDF membrane (Immobilon, Millipore, France) and then exposed to the appropriate antibodies. Proteins were visualized with the ECL system using horseradish peroxidase-conjugated anti-rabbit or anti-mouse secondary antibodies.
(A western blot detects proteins with antibodies after separation by electrophoresis.)

A further assay concerns DAOY and HD-MB03 cells. Kind of assay: Clonogenicity, medulloblastoma cells. As to conditions: 1 μM, Day+7 (DAOY), Day+11 (HD-MB03). The class given is cell-based. The procedure: FIG. 8: Inhibition of proliferation of medulloblastoma cells by compound #1. Clonogenicity tests; […].
150 DAOY cells and 300 HD-MB03 cells were seeded in a 6-well plate with or without treatment (1 μM of compound #1 or DMSO as control “CONT”). At Day+7 (DAOY) and Day+11 (HD-MB03), cells were mixed with absolute ethanol for 20 minutes, washed with PBS and colored with Giemsa 50% for 30 minutes. After washing, the boxes were scanned and the number of clones was quantified using ImageJ® software. Each assay was performed in duplicate.

This note sets out measurements from US20210380547A1, “UREA DERIVATIVES FOR TREATING AND/OR PREVENTING CANCER” (CENTRE NATIONAL DE LA RECHERCHE SCIENTIFIQUE, priority 2018, published 2021).

Entries after “also recorded” stand apart in the source; their conditions may differ. Read-outs that look alike come from different tables or passages of the source.

`O=C(Nc1cccc(Cl)c1)Nc1nc2ccc([N+](=O)[O-])cc2s1` [Compound #1, 1-(3-chlorophenyl)-3-(6-nitrobenzo[d]thiazol-2-yl)urea]: the concentration for a half-maximal effect (EC50) (commonly the concentration at which the effect is half-maximal) in the assay on MDA-MB-231 was 2.5 µM; with A498, 2.5 µM; in the assay on 786R (Homo sapiens, 48 h) it was 2 µM; in the assay with 786R, 2.5 µM; in the assay with CAL33RR, 3 µM; in the assay with CAL27 (Homo sapiens, CAL-27, 48 h) it was 2 µM. Besides, the EC50 in the assay with CAL27 was found to be 3 µM; in the assay on CAL27RR (Homo sapiens, light or radiation study, XTT assay (48 h), resistant to irradiation and cisplatin, standard deviation of 10%, read-out: EC50 (μM) Head and Neck CAL27RR) it was 2 µM; with OCI-AML3 it was 4 µM; with MolM13 it was 7 µM. Also, the “time of treatment to total inhibition of proliferation” value was around 100 h in the assay with 786R (786-R cells, 2.5 μM, XTT 24 h to 96 h); “approximately 70 hours” in the assay on CAL27 (Cal27 cells, 2.5 μM, XTT 24 h to 96 h); “approximately 70 hours” in the assay with CAL27RR (Cal27R cells, 2.5 μM, XTT 24 h to 96 h). Also, the “early (AV) and late (PI) apoptosis markers on malignant cells” value in assay [1] is “cytotoxic effect on malignant cells; also recorded: more efficient than compound #2”. Further, the “basal and CXCL5/CXCL7-dependent HuVEC proliferation” value in the assay on HuVEC is “inhibits basal and CXCL5/CXCL7-dependent HuVEC proliferation”. Moreover, in the assay with ERK signaling pathway, the “ERK signaling pathway (p-ERK) in HuVEC” value was “inhibition of the ERK signaling pathway”. Also, the “formation of DAOY and HD-MB03 clones” value in the assay with DAOY and HD-MB03 cells is reported as “significatively reduces the formation”.
